Measurements from ChEMBL document CHEMBL3868631, “Discovery of SOAT2 inhibitors from synthetic small molecules” (Bioorg Med Chem Lett, 2016).

Legend:
[1] = Cytotoxicity against CHO cells expressing African green monkey SOAT2 assessed as change in cell shape at 10 ug/ml; type: toxicity, cell-based, Cricetulus griseus; conditions: chinese hamster
[2] = Cytotoxicity against CHO cells expressing African green monkey SOAT1 assessed as change in cell shape at 10 ug/ml; type: toxicity, cell-based, Cricetulus griseus; conditions: chinese hamster
[3] = target: T1, SOAT1 (sterol O-acyltransferase 1) (Chlorocebus aethiops, UniProt O77760); experiment: Inhibition of African green monkey SOAT1 expressed in CHO cells assessed as reduction in [14C]cholesteryl ester formation from [1-14C]oleic acid at 10 ug/ml measured after 6 hrs relative to control; type: ADME, cell-based; conditions: CHO cells expressing African green monkey SOAT1, probe [1-14C]oleic acid
T1 sequence (O77760 whole entry): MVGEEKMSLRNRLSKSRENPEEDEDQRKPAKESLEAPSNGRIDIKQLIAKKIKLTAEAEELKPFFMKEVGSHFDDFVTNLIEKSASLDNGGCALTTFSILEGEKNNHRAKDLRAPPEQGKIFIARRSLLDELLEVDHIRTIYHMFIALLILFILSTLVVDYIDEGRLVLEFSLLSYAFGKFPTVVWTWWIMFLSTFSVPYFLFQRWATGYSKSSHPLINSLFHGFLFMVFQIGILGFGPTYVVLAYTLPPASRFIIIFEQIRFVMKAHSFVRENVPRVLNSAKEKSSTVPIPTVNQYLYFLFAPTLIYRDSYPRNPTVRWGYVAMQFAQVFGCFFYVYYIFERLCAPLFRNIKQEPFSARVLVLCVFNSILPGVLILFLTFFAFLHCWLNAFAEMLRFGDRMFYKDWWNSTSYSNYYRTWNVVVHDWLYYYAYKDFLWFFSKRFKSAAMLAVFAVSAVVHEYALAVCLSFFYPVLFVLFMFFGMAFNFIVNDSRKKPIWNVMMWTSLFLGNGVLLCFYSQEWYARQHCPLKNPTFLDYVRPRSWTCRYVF

[4] = target: T2, Sterol O-acyltransferase 2 (Chlorocebus aethiops) (UniProt O77759); experiment: Inhibition of African green monkey SOAT2 expressed in CHO cells assessed as reduction in [14C]cholesteryl ester formation from [1-14C]oleic acid at 10 ug/ml measured after 6 hrs relative to control; type: cell-based
T2 sequence (whole entry): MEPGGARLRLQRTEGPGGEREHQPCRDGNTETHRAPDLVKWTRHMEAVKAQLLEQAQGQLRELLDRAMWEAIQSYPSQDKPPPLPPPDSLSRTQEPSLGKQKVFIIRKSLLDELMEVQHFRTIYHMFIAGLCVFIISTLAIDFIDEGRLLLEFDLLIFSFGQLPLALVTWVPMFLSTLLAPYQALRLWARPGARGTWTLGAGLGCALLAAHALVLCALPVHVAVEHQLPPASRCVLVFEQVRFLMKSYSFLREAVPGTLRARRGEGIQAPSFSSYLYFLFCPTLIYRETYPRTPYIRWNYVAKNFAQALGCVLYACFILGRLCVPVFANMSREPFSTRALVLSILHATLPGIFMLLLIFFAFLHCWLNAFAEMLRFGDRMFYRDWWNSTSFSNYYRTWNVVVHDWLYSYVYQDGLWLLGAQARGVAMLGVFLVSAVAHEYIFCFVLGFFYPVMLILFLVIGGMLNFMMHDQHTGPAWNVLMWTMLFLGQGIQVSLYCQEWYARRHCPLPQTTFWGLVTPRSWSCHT

[5] = target: T3, Sterol O-acyltransferase 2 (Chlorocebus aethiops, UniProt O77759); experiment: Inhibition of African green monkey SOAT2 expressed in CHO cells assessed as reduction in [14C]cholesteryl ester formation from [1-14C]oleic acid measured after 6 hrs; type: cell-based
T3 sequence (O77759 whole entry): T2 sequence (whole entry)

[6] = Selectivity index, ratio of IC50 for African green monkey SOAT1 expressed in CHO cells to IC50 for African green monkey SOAT2 expressed in CHO cells; design: species or system Chlorocebus aethiops
[7] = target: T4, Sterol O-acyltransferase 1 (Chlorocebus aethiops, UniProt O77760); experiment: Inhibition of African green monkey SOAT1 expressed in CHO cells assessed as reduction in [14C]cholesteryl ester formation from [1-14C]oleic acid measured after 6 hrs; type: ADME, cell-based
T4 sequence (O77760 whole entry): T1 sequence (O77760 whole entry)

Row | SMILES | inhibition at 6 h, 10 ug/ml [3] | inhibition [4] | IC50 [5] | IC50 [7] | Activity [1] | Activity [2] | Ratio IC50 [6]
1 | O=C1C[C@@H](CCCCl)O[C@]2(C1)C(=O)Nc1cccc(Br)c12 |  |  |  |  | Non-Toxic | Non-Toxic | 
2 | CCC[C@@H]1CC(=O)C[C@@]2(O1)C(=O)Nc1cc(Cl)ccc12 (racemic) |  |  |  |  | Non-Toxic | Non-Toxic | 
3 | CCC[C@@H]1CC(=O)C[C@@]2(O1)C(=O)Nc1cccc(Cl)c12 |  |  |  |  | Non-Toxic | Non-Toxic | 
4 | C=CC[C@@]1(O)C[C@@H](CCC)O[C@]2(C1)C(=O)Nc1ccccc12 |  |  |  |  | Non-Toxic | Non-Toxic | 
5 | CCC[C@H]1C/C(=N/OCc2ccccc2)C[C@]2(O1)C(=O)Nc1ccccc12 | > 50% | > 50% | 16 µM | 14 µM |  |  | 0.88
6 | CCC[C@@H]1CC(=O)C[C@@]2(O1)C(=O)Nc1ccccc12 |  |  |  |  | Non-Toxic |  | 
7 | CCC[C@@H]1C[C@@H](O)C[C@@]2(O1)C(=O)Nc1ccccc12 |  |  |  |  | Non-Toxic | Non-Toxic | 
8 | CCC[C@@H]1CC(=O)C[C@@]2(O1)C(=O)Nc1ccccc12 (racemic) |  |  |  |  |  | Non-Toxic | 
9 | CCC[C@@H]1CC(=O)C[C@@]2(O1)C(=O)Nc1ccc(Br)cc12 (racemic) |  |  |  |  | Non-Toxic | Non-Toxic | 
10 | CCC[C@@H]1CC(=NOCc2ccccc2)C[C@@]2(O1)C(=O)Nc1ccccc12 (racemic) | > 50% | > 50% | 3 µM | 8.9 µM |  |  | 3
11 | CCC[C@@H]1C[C@@H](NCc2ccccc2)C[C@@]2(O1)C(=O)Nc1cccc(Br)c12 (racemic) | > 50% | > 50% | 12 µM | > 23 µM |  |  | >1.9
12 | CCC[C@@H]1CC(=O)C[C@@]2(O1)C(=O)Nc1ccc(C)cc12 |  |  |  |  | Non-Toxic | Non-Toxic | 
13 | CCC[C@@H]1C[C@@H](NCc2ccccc2)C[C@@]2(O1)C(=O)N(Cc1ccccc1)c1ccccc12 (racemic) | > 50% | > 50% | 9.1 µM | 11 µM |  |  | 1.2
14 | CCC/C=C/C(=O)CC1(O)C(=O)Nc2ccccc21 (racemic) |  |  |  |  | Toxic | Toxic | 
15 | CCC[C@@H]1C[C@@H](NCc2ccccc2)C[C@@]2(O1)C(=O)N(C)c1ccccc12 (racemic) | > 50% | > 50% | > 27 µM | > 27 µM |  |  | 
16 | CCC[C@@H]1CC(=O)C[C@@]2(O1)C(=O)Nc1cccc(Br)c12 |  |  |  |  | Non-Toxic | Non-Toxic | 
17 | O=C1CC(c2ccccc2)O[C@]2(C1)C(=O)Nc1cccc(Br)c12 (mixture of isomers) | > 50% | > 50% |  |  | Non-Toxic | Non-Toxic | 

More lines, main results first:

Row | inhibition at 6 h, 10 ug/ml [3] | inhibition [4] | IC50 [5] | IC50 [7] | SMILES | Activity [1] | Activity [2] | Ratio IC50 [6]
18 | > 50% | > 50% | 26 µM | > 31 µM | CCC[C@@H]1C[C@@H](N2CCCC2)C[C@@]2(O1)C(=O)Nc1ccccc12 (racemic) |  |  | >1.2
19 | > 50% | > 50% |  |  | CCC[C@@H]1C/C(=N/O)C[C@@]2(O1)C(=O)Nc1ccccc12 (racemic) | Non-Toxic | Non-Toxic | 
20 | > 50% | > 50% | 9.3 µM | > 28 µM | CCC[C@@H]1CC(=O)C[C@@]2(O1)C(=O)N(C)c1cccc(Br)c12 | Non-Toxic | Non-Toxic | >3
21 | > 50% | > 50% | 6.8 µM | > 28 µM | CCC[C@@H]1C[C@@H](NCc2ccccc2)C[C@@]2(O1)C(=O)Nc1ccccc12 (racemic) | Non-Toxic | Non-Toxic | >4.1
22 | > 50% | > 50% | 1.5 µM | 16 µM | CCC[C@@H]1C/C(=N/OCc2ccccc2)C[C@@]2(O1)C(=O)Nc1ccccc12 |  |  | 10 - 11
23 | > 50% | > 50% |  |  | CCC/C=C/C(=O)CC1(O)C(=O)Nc2cccc(Br)c21 (racemic) | Toxic | Toxic | 
24 | > 50% | > 50% | > 33 µM | > 22 µM | CCC[C@@H]1C[C@@H](NCc2ccccc2)C[C@@]2(O1)C(=O)N(C)c1cccc(Br)c12 (racemic) |  |  | 
